Patent US12275731B2, “Azaindole inhibitors of wild-type and mutant forms of LRRK2” (DANA-FARBER CANCER INSTITUTE, INC., priority 2018, dated 2025)

Tests used:
Experiment in all cases: KinomeScan profiling
Assay type in all cases: binding
FGFR2 = FGFR2 (Homo sapiens, UniProt P21802); conditions: FGFR2, 1 μM; read-out: % control
Procedure, shortened: (§1)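 Luminescence (RLU) was converted to percent of control, with DMSO set as 100% and a reference compound as 0%. Test compounds were run at 1 μM against 468 kinases. Kinases showing below 35% of control were scored as bound.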

EIF2AK1 = EIF2AK1 (Homo sapiens, UniProt Q9BQI3); conditions: EIF2AK1, 1 μM; read-out: % control
Procedure, shortened: as §1

CDK8 = CDK8 (Homo sapiens, UniProt P49336); conditions: CDK8, 1 μM; read-out: % control
Procedure, shortened: as §1

DMPK2 = DMPK2 (Homo sapiens, UniProt Q6DT37); conditions: DMPK2, 1 μM; read-out: % control
Procedure, shortened: as §1

LRRK2(G2019S) = LRRK2(G2019S) (Homo sapiens, UniProt Q5S007, G2019S); conditions: read-out: % control
Procedure, shortened: as §1

DAPK2 = DAPK2 (Homo sapiens, UniProt Q9UIK4); conditions: DAPK2, 1 μM; read-out: % control
Procedure, shortened: as §1

CAMK2G = CAMK2G (Homo sapiens, UniProt Q13555); conditions: read-out: % control
Procedure, shortened: as §1

PIM3 = target: T1, PIM3 (Homo sapiens, UniProt Q86V86); conditions: PIM3, 1 μM; read-out: % control
T1 construct: purchased KinomeScan® (panel service)
Procedure, shortened: as §1

CSNK1A1L = target: T2, CSNK1A1L (Homo sapiens, UniProt Q8N752); conditions: read-out: % control
T2 sequence (Q8N752 1-337): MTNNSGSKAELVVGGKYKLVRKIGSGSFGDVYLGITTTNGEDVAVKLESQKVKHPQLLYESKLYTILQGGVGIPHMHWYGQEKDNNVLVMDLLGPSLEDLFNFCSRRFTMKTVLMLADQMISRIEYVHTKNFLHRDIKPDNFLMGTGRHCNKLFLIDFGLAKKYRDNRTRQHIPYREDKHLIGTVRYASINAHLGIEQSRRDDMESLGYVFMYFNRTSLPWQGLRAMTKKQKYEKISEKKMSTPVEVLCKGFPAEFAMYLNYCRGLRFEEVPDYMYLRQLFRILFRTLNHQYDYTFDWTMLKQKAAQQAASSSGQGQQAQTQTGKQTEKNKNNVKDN
Procedure, shortened: as §1

ITK = target: T3, ITK (Homo sapiens, UniProt Q08881); conditions: read-out: % control
T3 construct: purchased KinomeScan®
T3 sequence (Q08881 1-620): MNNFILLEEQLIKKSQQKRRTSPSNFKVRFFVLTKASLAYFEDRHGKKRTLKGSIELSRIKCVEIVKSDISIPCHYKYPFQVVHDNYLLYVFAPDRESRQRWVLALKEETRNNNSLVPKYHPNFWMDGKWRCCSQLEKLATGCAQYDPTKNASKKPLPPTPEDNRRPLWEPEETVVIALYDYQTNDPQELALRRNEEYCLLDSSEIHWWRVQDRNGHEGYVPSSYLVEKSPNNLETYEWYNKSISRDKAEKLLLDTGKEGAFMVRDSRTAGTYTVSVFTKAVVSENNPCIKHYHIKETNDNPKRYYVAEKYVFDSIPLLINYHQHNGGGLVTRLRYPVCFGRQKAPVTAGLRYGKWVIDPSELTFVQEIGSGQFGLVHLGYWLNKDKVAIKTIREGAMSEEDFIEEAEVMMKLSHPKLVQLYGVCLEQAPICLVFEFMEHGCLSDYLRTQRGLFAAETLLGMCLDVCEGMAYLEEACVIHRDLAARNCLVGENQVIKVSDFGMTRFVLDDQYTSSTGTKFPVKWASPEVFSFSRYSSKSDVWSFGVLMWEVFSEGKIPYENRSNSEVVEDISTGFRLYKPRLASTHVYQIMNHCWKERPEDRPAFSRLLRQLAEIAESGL
Procedure, shortened: as §1

TAOK1 = target: T4, TAOK1 (Homo sapiens, UniProt Q7L7X3); conditions: TAOK1, 1 μM; read-out: % control
T4 construct: purchased KinomeScan® (panel service)
T4 sequence (Q7L7X3 1-1001): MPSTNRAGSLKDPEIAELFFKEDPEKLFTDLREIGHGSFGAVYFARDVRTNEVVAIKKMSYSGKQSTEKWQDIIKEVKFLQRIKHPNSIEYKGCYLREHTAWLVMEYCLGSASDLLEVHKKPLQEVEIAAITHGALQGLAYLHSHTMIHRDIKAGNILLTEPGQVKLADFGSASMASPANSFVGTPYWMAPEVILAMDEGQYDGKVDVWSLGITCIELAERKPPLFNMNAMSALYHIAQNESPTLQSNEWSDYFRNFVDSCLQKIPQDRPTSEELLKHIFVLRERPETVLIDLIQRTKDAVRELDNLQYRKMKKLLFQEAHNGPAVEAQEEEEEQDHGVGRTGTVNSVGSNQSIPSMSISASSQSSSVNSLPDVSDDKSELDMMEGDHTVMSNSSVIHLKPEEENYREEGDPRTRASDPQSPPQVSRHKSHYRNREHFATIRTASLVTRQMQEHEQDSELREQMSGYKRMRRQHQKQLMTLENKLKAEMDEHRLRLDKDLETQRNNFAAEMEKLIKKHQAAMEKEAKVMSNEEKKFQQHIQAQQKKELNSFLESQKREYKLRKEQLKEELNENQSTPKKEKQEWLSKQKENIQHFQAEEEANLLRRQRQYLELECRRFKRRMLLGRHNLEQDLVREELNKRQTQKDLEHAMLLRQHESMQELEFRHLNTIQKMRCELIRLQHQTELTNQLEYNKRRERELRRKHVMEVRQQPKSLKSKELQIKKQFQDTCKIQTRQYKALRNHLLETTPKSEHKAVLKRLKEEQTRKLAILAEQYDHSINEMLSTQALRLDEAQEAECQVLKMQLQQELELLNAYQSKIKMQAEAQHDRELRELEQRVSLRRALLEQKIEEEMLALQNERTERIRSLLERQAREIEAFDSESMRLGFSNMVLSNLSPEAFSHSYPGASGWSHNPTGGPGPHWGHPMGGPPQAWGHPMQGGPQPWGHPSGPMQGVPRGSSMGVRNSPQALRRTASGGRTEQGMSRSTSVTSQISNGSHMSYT
Procedure, shortened: as §1

Chain of DAPK2 (Q9UIK4 whole entry): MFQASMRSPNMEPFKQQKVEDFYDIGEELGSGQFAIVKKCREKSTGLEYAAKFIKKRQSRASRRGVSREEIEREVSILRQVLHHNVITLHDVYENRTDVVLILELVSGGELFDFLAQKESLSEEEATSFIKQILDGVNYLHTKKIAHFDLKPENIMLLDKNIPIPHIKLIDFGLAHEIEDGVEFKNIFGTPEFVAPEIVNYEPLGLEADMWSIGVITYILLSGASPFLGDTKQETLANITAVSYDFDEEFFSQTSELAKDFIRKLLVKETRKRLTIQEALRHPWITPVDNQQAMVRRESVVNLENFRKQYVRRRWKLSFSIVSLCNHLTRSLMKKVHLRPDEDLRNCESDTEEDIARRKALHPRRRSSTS
Chain of CDK8 (P49336 whole entry): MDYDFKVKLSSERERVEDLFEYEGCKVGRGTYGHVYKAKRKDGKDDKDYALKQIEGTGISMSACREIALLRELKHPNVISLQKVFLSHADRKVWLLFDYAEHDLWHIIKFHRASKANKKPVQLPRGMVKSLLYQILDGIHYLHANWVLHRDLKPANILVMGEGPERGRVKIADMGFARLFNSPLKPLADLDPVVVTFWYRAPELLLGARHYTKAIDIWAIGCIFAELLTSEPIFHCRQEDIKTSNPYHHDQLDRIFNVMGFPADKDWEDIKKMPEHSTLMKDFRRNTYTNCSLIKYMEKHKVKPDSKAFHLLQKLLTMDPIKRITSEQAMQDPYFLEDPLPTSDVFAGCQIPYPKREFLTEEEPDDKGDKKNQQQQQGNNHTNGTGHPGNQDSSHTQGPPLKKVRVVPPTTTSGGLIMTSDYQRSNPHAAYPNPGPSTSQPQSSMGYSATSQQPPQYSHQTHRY
Chain of EIF2AK1 (Q9BQI3 whole entry): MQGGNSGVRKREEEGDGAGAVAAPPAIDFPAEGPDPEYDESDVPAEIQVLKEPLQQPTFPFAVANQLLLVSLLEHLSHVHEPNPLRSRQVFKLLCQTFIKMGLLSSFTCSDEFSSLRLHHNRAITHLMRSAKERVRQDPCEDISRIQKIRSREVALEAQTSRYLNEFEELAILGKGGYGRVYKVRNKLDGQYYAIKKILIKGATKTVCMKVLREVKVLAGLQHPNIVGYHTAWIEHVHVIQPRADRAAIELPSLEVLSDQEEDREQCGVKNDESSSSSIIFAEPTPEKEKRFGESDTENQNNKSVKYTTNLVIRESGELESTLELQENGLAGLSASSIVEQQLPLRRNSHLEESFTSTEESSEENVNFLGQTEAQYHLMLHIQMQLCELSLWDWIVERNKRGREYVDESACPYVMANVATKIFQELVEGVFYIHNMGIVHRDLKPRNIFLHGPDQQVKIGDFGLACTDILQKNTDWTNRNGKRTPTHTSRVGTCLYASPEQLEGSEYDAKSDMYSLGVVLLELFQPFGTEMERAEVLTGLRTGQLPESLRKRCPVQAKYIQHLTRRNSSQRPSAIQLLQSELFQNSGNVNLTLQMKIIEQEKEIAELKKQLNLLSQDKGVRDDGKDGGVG
Chain of CAMK2G (Q13555 whole entry): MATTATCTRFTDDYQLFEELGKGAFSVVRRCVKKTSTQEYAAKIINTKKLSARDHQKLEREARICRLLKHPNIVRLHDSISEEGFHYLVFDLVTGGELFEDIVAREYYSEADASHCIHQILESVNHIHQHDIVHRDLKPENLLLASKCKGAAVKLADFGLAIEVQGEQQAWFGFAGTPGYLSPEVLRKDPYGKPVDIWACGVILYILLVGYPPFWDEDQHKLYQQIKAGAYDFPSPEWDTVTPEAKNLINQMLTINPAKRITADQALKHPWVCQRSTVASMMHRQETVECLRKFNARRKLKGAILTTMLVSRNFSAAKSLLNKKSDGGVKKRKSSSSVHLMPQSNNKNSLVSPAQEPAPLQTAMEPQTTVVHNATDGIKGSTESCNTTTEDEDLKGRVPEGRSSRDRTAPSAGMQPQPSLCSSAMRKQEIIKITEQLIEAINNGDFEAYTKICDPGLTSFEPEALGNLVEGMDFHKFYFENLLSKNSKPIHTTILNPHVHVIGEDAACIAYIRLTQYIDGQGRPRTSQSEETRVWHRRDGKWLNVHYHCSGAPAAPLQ
Chain of LRRK2(G2019S) (Q5S007 whole entry G2019S): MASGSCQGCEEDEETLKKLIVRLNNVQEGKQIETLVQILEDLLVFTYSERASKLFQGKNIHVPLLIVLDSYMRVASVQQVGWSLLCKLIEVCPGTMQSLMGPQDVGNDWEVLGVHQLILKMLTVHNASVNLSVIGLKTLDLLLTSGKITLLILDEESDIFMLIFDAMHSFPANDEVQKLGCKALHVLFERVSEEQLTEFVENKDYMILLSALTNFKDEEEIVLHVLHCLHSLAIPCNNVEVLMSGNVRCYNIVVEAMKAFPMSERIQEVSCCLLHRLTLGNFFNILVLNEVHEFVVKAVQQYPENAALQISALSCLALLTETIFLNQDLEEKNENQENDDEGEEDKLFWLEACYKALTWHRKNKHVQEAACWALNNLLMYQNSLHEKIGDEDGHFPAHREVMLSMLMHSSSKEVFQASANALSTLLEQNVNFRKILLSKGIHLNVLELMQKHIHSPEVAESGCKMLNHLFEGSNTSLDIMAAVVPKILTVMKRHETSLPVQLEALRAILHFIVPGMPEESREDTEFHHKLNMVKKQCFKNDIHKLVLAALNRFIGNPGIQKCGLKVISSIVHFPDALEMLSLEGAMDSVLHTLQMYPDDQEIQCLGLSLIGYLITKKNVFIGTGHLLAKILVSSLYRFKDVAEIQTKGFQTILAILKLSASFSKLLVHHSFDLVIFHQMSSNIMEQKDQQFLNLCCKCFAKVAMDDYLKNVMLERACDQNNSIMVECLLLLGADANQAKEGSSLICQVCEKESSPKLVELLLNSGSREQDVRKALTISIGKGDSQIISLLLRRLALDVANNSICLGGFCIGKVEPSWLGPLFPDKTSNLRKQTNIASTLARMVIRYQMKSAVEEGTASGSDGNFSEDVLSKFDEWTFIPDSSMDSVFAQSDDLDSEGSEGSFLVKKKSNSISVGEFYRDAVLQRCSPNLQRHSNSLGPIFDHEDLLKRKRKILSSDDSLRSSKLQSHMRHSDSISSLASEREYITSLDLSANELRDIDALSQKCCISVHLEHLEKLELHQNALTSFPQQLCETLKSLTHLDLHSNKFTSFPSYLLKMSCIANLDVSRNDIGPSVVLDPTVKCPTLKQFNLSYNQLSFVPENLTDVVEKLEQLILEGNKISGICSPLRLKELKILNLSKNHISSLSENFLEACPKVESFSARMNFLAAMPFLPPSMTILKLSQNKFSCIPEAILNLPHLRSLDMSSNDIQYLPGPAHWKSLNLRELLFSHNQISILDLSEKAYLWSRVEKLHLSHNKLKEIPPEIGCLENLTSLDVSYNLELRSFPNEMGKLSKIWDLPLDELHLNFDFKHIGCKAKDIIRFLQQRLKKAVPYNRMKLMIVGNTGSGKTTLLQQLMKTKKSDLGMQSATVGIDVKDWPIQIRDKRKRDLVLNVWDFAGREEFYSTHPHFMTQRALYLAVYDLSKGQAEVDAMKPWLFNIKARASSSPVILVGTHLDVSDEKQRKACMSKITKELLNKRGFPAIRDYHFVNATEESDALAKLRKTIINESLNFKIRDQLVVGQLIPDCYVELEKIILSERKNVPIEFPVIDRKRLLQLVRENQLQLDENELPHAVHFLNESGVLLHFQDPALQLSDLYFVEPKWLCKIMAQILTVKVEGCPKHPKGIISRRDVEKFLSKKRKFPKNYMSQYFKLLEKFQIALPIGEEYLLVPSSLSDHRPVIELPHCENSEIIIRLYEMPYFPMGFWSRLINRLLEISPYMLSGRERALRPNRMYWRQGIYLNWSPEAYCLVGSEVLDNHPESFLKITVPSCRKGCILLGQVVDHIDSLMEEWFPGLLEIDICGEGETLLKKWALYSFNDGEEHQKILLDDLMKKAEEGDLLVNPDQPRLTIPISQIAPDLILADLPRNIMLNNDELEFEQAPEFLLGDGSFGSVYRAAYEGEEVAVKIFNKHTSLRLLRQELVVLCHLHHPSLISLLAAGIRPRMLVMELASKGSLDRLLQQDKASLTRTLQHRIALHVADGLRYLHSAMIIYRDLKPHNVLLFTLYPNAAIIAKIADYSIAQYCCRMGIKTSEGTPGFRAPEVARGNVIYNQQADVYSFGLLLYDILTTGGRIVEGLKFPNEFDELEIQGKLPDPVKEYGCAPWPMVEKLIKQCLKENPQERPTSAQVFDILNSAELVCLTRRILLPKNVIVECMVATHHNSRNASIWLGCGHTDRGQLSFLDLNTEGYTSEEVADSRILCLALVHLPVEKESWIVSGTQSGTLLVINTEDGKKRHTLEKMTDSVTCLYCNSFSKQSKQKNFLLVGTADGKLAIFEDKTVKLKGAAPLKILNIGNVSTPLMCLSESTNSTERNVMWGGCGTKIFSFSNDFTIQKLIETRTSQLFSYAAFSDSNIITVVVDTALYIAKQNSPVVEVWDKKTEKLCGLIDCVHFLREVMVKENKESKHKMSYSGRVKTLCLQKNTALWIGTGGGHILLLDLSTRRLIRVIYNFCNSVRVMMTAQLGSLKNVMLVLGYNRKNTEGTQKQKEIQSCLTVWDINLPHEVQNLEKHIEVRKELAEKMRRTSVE

| Compound | remaining binding at 1 µM (FGFR2) [%] | remaining binding at 1 µM (EIF2AK1) [%] | remaining binding at 1 µM (CDK8) [%] | remaining binding at 1 µM (DMPK2) [%] | remaining binding at 1 µM (LRRK2(G2019S)) [%] | remaining binding at 1 µM (DAPK2) [%] | remaining binding at 1 µM (CAMK2G) [%] | remaining binding at 1 µM (PIM3) [%] | remaining binding at 1 µM (CSNK1A1L) [%] | remaining binding at 1 µM (ITK) [%] | remaining binding at 1 µM (TAOK1) [%] |
| --- | --- | --- | --- | --- | --- | --- | --- | --- | --- | --- | --- |
| O=C(c1ccc(-c2cnc3[nH]cc(Cl)c3c2NC2CCCC2)cc1)N1CCC(N2CCOCC2)CC1 [Compound 101, (4-(3-chloro-4-(cyclopentylamino)-1H-pyrrolo[2,3-b]pyridin-5-yl)phenyl)(4-morpholinopiperidin-1-yl)methanone] | 54 | 100 | 59 | 100 | 22 | 100 | 96 | 96 | 100 | 90 | 99 |
| CNc1c(-c2cnn([C@H]3CCN(C(C)=O)C[C@@H]3F)c2)cnc2[nH]cc(Cl)c12 [Compound 77, 1-((3S,4S)-4-(4-(3-chloro-4-(methylamino)-1H-pyrrolo[2,3-b]pyridin-5-yl)-1H-pyrazol-1-yl)-3-fluoropiperidin-1-yl)ethan-1-one] | 72 | 100 | 100 | 80 | 11 | 72 | 90 | 99 | 79 | 71 | 100 |
| CNc1c(-c2ccc(C(=O)N3CCC(N4CCOCC4)CC3)cc2)cnc2[nH]cc(Cl)c12 [Compound 96, (4-(3-chloro-4-(methylamino)-1H-pyrrolo[2,3-b]pyridin-5-yl)phenyl)(4-morpholinopiperidin-1-yl)methanone] | 94 | 100 | 82 | 91 | 3.2 | 82 | 95 | 100 | 48 | 93 | 96 |
